From PubChem BioAssay AID256 (DTP/NCI, 2004) come the findings set out here.

Structures are written as SMILES. Toxic doses and inconclusive results are not listed.

In this assay the test system is CD2F1 mice, L1210 leukemia ip, survival T/C. Nature of the assay: NCI In Vivo Anticancer Drug Screen. Data for tumor model L1210 Leukemia (intraperitoneal) in CD2F1 (CDF1) mice. The following applies: higher = longer survival. A digest of the protocol:
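Transplantable tumor in mice; compound-treated vs vehicle-treated groups. Read-out = treated/control ratio of the measured endpoint.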

Setting [1] is: endpoint: mean survival time, dose: 100.0 mg/kg/injection, schedule: Q01DX001 (ip), vehicle: saline.
Where [2] appears, read: endpoint: mean survival time, dose: 75.0 mg/kg/injection, schedule: Q01DX001 (ip), vehicle: saline.
Setting [3] is: endpoint: mean survival time, dose: 150.0 mg/kg/injection, schedule: Q01DX001 (ip), vehicle: saline.
Setting [4] is: endpoint: mean survival time, dose: 12.5 mg/kg/injection, schedule: Q04DX003 (ip), vehicle: saline with Tween-80.
Where [5] appears, read: endpoint: mean survival time, dose: 25.0 mg/kg/injection, schedule: Q04DX003 (ip), vehicle: saline with Tween-80.
The mark [6] stands for this setting: endpoint: mean survival time, dose: 50.0 mg/kg/injection, schedule: Q04DX003 (ip), vehicle: saline with Tween-80.
Where [7] appears, read: endpoint: mean survival time, dose: 100.0 mg/kg/injection, schedule: Q01DX009 (ip), vehicle: saline with Tween-80.
Setting [8] is: endpoint: mean survival time, dose: 100.0 mg/kg/injection, schedule: Q04DX003 (ip), vehicle: saline with Tween-80.
[9] abbreviates: endpoint: mean survival time, dose: 200.0 mg/kg/injection, schedule: Q01DX009 (ip), vehicle: saline with Tween-80.
Setting [10] is: endpoint: mean survival time, dose: 200.0 mg/kg/injection, schedule: Q04DX003 (ip), vehicle: saline with Tween-80.
Where [11] appears, read: endpoint: mean survival time, dose: 400.0 mg/kg/injection, schedule: Q01DX009 (ip), vehicle: saline with Tween-80.
Setting [12] is: endpoint: mean survival time, dose: 400.0 mg/kg/injection, schedule: Q04DX003 (ip), vehicle: saline with Tween-80.
[13] abbreviates: endpoint: median survival time, dose: 3.12 mg/kg/injection, schedule: Q04DX003 (ip), vehicle: saline.
The mark [14] stands for this setting: endpoint: median survival time, dose: 6.25 mg/kg/injection, schedule: Q04DX003 (ip), vehicle: saline.
[15] abbreviates: endpoint: median survival time, dose: 12.5 mg/kg/injection, schedule: Q04DX003 (ip), vehicle: saline.
The mark [16] stands for this setting: endpoint: median survival time, dose: 25.0 mg/kg/injection, schedule: Q04DX003 (ip), vehicle: saline.
Where [17] appears, read: endpoint: median survival time, dose: 50.0 mg/kg/injection, schedule: Q04DX003 (ip), vehicle: saline.
Setting [18] is: endpoint: median survival time, dose: 100.0 mg/kg/injection, schedule: Q04DX003 (ip), vehicle: saline.
Setting [19] is: endpoint: median survival time, dose: 200.0 mg/kg/injection, schedule: Q04DX003 (ip), vehicle: saline.

On to `C=CCOCC(O)CN1CCCCC1` (configuration not stated), for which the T/C is 116 % of control (endpoint: mean survival time, dose: 50.0 mg/kg/injection, schedule: Q01DX009 (ip), vehicle: saline) and 96 % of control (endpoint: mean survival time, dose: 100.0 mg/kg/injection, schedule: Q01DX009 (ip), vehicle: saline).
Turning to `CCC12CN3CCc4c([nH]c5ccccc45)C(C(=O)OC)(c4cc5c(cc4OC)N(C)C4C(O)(C(=O)OC)C(OC(C)=O)C6(CC)C=CCN7CCC54C76)CC(C3)C1O2.CI.CO.[I][Hg][I]` (configuration not stated), the T/C under setting [1] is 100 % of control.
With `CC(=O)OC1CC2CC(O)(C(=O)CO)CC2C2CCC3=CC(=O)CC3C(C)(O)C12` (configuration not stated), the T/C is, setting by setting: under setting [2], 91 % of control; under setting [3], 96 % of control; (endpoint: mean survival time, dose: 300.0 mg/kg/injection, schedule: Q01DX001 (ip), vehicle: saline) 95 % of control.
As to `Nc1cc(C(=O)Nc2ccc(C3=NCCN3)cc2)cc(C(=O)Nc2ccc(C3=NCCN3)cc2)c1`, the T/C was 115 % of control (endpoint: mean survival time, dose: 31.3 mg/kg/injection, schedule: Q01DX010 (oral), vehicle: saline) and 159 % of control (endpoint: mean survival time, dose: 250.0 mg/kg/injection, schedule: Q01DX010 (oral), vehicle: saline).
For the molecule `C(N=Nc1ccccc1)=C(c1ccccc1)c1ccccc1`, the T/C by setting is: (endpoint: mean survival time, dose: 100.0 mg/kg/injection, schedule: Q04DX002 (ip), vehicle: other) 107 % of control; (endpoint: mean survival time, dose: 200.0 mg/kg/injection, schedule: Q04DX002 (ip), vehicle: other) 103 % of control; (endpoint: mean survival time, dose: 400.0 mg/kg/injection, schedule: Q04DX002 (ip), vehicle: other) 103 % of control.
Turning to `c1ccc(N=N/C(=N/Nc2ccccc2)c2ccccc2)cc1`, the T/C is, setting by setting: (endpoint: mean survival time, dose: 6.25 mg/kg/injection, schedule: Q01DX009 (ip), vehicle: saline with Tween-80) 104 % of control; (endpoint: mean survival time, dose: 12.5 mg/kg/injection, schedule: Q01DX009 (ip), vehicle: saline with Tween-80) 101 % of control; (endpoint: mean survival time, dose: 25.0 mg/kg/injection, schedule: Q01DX009 (ip), vehicle: saline with Tween-80) 98 % of control.
On to `CN(C)CC1CCC/C(=C\C=C\c2ccccc2)C1=O` (configuration not stated), for which the T/C (endpoint: mean survival time, dose: 12.5 mg/kg/injection, schedule: Q04DX003 (ip), vehicle: Klucel (hydroxypropylcellulose) (HPC)) was 100 % of control; the T/C (endpoint: mean survival time, dose: 25.0 mg/kg/injection, schedule: Q04DX003 (ip), vehicle: Klucel (hydroxypropylcellulose) (HPC)) was 103 % of control; the T/C (endpoint: mean survival time, dose: 50.0 mg/kg/injection, schedule: Q04DX003 (ip), vehicle: Klucel (hydroxypropylcellulose) (HPC)) was 94 % of control.
As to `CC(O)CN1CCN(CC(C)O)CC1.[Cl][Pt+2][Cl]` (configuration not stated), the T/C is 105 % of control (endpoint: mean survival time, dose: 3.13 mg/kg/injection, schedule: Q04DX003 (ip), vehicle: saline with Tween-80); 102 % of control (endpoint: mean survival time, dose: 6.25 mg/kg/injection, schedule: Q04DX003 (ip), vehicle: saline with Tween-80); 105 % of control under setting [4]; 102 % of control under setting [5]; 97 % of control under setting [6].
For `C=COC(=O)NC(CC(C)C)C(=O)O` (configuration not stated), the T/C is, setting by setting: under setting [2], 103 % of control; under setting [3], 101 % of control.
Regarding `CC1(C)C2=CCCC3(OCCO3)C2(C)CCC1O` (configuration not stated), the T/C was 104 % of control under setting [7]; 98 % of control under setting [8]; 106 % of control under setting [9]; 98 % of control under setting [10]; 98 % of control under setting [11]; 101 % of control under setting [12].
In the case of `[Pt+4].[c-]1ccccc1C1CCCC[N-]1.[c-]1ccccc1C1CCCC[N-]1` (configuration not stated), the T/C is 107 % of control under setting [13]; 107 % of control under setting [14]; 103 % of control under setting [15]; 103 % of control under setting [16]; 107 % of control under setting [17]; 103 % of control under setting [18]. Further, the T/C under setting [19] was 103 % of control.
Consider `O.O.O=C(O)C(O)C(O)C(OC1OC(CO)C(O)C(O)C1O)C(O)CO.O=C(O)C(O)C(O)C(OC1OC(CO)C(O)C(O)C1O)C(O)CO.[NH-]C1CCCCC1[NH-].[Pt+2]` (configuration not stated), for which the T/C is 100 % of control under setting [13]; 100 % of control under setting [14]; 102 % of control under setting [15]; 101 % of control under setting [16]; 98 % of control under setting [17]; 101 % of control under setting [18]. Moreover, the T/C under setting [19] was 112 % of control.
With `CC(=O)c1cc(Br)cc(Br)c1O`, the T/C is 96 % of control under setting [1]; 100 % of control (endpoint: mean survival time, dose: 200.0 mg/kg/injection, schedule: Q01DX001 (ip), vehicle: saline); 96 % of control (endpoint: mean survival time, dose: 400.0 mg/kg/injection, schedule: Q01DX001 (ip), vehicle: saline).
On to `COc1ccc(F)cc1NC(=O)OC(C)C`, for which the T/C reads like this: under setting [7], 92 % of control; under setting [9], 96 % of control; under setting [11], 96 % of control.
Take `O=C1CC2C3=C(CCC3)CCN2C2=C1CC(OC(=O)c1ccccc1)CC2` (configuration not stated): the T/C by setting is: under setting [4], 90 % of control; under setting [5], 88 % of control; under setting [6], 94 % of control.
For the molecule `Cc1cc(NC(=O)Nc2ccccc2C)no1`, the T/C by setting is: (endpoint: mean survival time, dose: 100.0 mg/kg/injection, schedule: Q01DX001 (ip), vehicle: saline with Tween-80) 106 % of control; (endpoint: mean survival time, dose: 200.0 mg/kg/injection, schedule: Q01DX001 (ip), vehicle: saline with Tween-80) 100 % of control; (endpoint: mean survival time, dose: 400.0 mg/kg/injection, schedule: Q01DX001 (ip), vehicle: saline with Tween-80) 103 % of control.
As to `c1ccc(-c2nc3c(c(-c4ccccc4)n2)CCO3)cc1`, the T/C under setting [7] is 95 % of control; the T/C under setting [8] was 98 % of control; the T/C under setting [9] is 93 % of control; the T/C under setting [10] is 100 % of control; the T/C under setting [11] is 95 % of control; the T/C under setting [12] is 90 % of control.
As to `c1ccc2c(c1)[nH]c1c2c[n+]2c3c(cccc13)CCC2`, the T/C runs as follows: (endpoint: mean survival time, dose: 6.25 mg/kg/injection, schedule: Q01DX001 (ip), vehicle: saline) 101 % of control; (endpoint: mean survival time, dose: 12.5 mg/kg/injection, schedule: Q01DX001 (ip), vehicle: saline) 107 % of control.
`Oc1ccc2c3c1OC1C(O)C=CC4C(C2)NCCC341` (configuration not stated): the T/C is 95 % of control (endpoint: mean survival time, dose: 25.0 mg/kg/injection, schedule: Q04DX003 (ip), vehicle: DMSO); 95 % of control (endpoint: mean survival time, dose: 50.0 mg/kg/injection, schedule: Q04DX003 (ip), vehicle: DMSO); 106 % of control (endpoint: mean survival time, dose: 100.0 mg/kg/injection, schedule: Q04DX003 (ip), vehicle: DMSO).
